The results in this text go back to patent US8314215B2, “Mild chemically cleavable linker system” (The Board of Trustees of the Leland Stanford Junior …, priority 2006, dated 2012).

Assay [1] in a line: Background peptides, chemical elution versus on-bead digestion. On the set-up: species or system mouse. Particulars: chemical elution compared with on-bead digestion. Here is the method: (§1) After enrichment on immobilized avidin, each of the three labeled proteomes (FIG. 5b) was divided into two aliquots. One was prepared for LC-MS/MS analysis by “on bead” digestion, while the other was chemically eluted and digested “in solution.” Proteins identified in each tissue lysate are listed with their accession number and theoretical molecular weight (MW). To compare both approaches, the number of identified peptides and percentage of amino acid sequence coverage is listed for each protein.
Carboxylesterase 4 has not been characterized on a functional level and has never been confirmed to be catalytically active (Rawlings, N. D., Morton, F. R., and Barrett, A. J. (2006) MEROPS: the peptidase database. Nucleic Acids Res 34, D270-272.). […] Overall the level of background peptides was decreased by over 90%, when chemical elution was used for the sample preparation (as shown in the above Table). Although the number of carboxylesterase peptides identified was reduced compared to the on-bead sample we could still make a confident identification with nearly 40% coverage of peptide sequence.

The target of assay [2] is T1, glyceraldehyde-3-phosphate dehydrogenase (Mus musculus, UniProt P16858).
T1 construct: from tissue; host or cells: mouse liver extract
T1 sequence (P16858 whole entry): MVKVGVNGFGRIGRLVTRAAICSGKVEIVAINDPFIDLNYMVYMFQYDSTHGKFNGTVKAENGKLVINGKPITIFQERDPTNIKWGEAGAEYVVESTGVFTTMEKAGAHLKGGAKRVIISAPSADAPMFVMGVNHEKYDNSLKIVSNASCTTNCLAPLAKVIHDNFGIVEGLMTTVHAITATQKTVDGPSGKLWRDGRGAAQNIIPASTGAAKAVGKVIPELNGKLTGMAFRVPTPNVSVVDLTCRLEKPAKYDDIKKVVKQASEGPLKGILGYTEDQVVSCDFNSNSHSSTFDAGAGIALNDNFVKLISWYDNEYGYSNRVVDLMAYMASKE
Put plainly: LC/MS/MS identification of proteins from mouse liver extracts labeled with MTS-I-49. The format is biochemical.
Excerpt: (§2) (1991) Irreversible inhibition of serine proteases by peptide derivatives of (alpha-aminoalkyl)phosphonate diphenyl esters. Biochemistry 30, 485-493). However, it has not been used for any proteomic applications. We used MTS-I-49 to label mouse liver extracts and analyze the labeled sample by both SDS-PAGE (FIG. 5B) and by direct chemical cleavage or on bead digestion.
as §1
(§3) Proteins in the above Table were identified by LC/MS/MS analysis of on bead digested or chemically eluted proteins from mouse liver extracts labeled with MTS-I-49. […] BLAST database searching identified it as liver carboxylesterase 4. A number of additional endogenously biotinylated proteins were identified in the on-bead digested sample.

For assay [3], the target named is T2, acetyl-Coenzyme acyltransferase 2 (Mus musculus, UniProt Q8BWT1).
T2 construct: from tissue; host or cells: mouse liver extract
T2 sequence (Q8BWT1 1-397): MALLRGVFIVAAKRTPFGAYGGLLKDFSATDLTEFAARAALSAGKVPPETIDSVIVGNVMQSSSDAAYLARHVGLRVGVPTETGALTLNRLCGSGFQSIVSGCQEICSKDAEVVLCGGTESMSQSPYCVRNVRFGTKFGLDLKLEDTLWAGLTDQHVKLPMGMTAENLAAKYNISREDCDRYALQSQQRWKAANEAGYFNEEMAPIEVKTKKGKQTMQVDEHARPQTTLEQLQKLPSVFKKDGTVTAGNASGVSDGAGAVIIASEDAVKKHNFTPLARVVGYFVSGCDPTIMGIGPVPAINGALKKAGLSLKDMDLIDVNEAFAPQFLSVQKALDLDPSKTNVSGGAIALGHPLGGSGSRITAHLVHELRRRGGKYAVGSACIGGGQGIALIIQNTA
The assay is described as above. It counts as biochemical.
Excerpt: as §2, §1, §3

Assay [4] deals with T3, betaine-homocysteine methyltransferase (Mus musculus, UniProt O35490).
T3 construct: from tissue; host or cells: mouse liver extract
T3 sequence (O35490 1-407): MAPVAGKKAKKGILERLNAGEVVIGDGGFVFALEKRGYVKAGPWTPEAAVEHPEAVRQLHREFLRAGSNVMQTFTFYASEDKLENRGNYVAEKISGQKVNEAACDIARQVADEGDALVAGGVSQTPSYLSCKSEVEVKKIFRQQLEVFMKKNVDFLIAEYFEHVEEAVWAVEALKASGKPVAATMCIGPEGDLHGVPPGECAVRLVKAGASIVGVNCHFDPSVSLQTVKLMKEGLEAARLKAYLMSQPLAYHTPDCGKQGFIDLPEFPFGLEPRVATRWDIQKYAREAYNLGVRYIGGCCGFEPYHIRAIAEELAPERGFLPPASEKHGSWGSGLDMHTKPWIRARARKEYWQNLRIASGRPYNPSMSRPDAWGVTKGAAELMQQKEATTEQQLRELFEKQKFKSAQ
Described as above. It counts as biochemical.
Excerpt: as §2, §1, §3

In the next assay the target is T4, alcohol dehydrogenase 1 (Mus musculus, UniProt P00329).
T4 construct: from tissue; host or cells: mouse liver extract
T4 sequence (P00329 whole entry): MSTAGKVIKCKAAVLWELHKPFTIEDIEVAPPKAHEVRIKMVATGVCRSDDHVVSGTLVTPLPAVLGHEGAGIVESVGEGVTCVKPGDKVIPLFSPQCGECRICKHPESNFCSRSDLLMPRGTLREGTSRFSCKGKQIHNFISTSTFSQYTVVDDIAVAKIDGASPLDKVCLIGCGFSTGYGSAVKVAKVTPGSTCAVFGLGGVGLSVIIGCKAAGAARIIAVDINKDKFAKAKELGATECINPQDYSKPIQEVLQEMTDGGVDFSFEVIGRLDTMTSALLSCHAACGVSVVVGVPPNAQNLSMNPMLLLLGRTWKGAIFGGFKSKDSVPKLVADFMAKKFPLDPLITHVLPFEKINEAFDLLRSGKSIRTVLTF
The description is as above. It counts as biochemical.
Excerpt: as §2, §1, §3

In a further assay the target is T5, albumin 1 (Mus musculus, UniProt P07724).
T5 construct: from tissue; host or cells: mouse liver extract
T5 sequence (P07724 25-608): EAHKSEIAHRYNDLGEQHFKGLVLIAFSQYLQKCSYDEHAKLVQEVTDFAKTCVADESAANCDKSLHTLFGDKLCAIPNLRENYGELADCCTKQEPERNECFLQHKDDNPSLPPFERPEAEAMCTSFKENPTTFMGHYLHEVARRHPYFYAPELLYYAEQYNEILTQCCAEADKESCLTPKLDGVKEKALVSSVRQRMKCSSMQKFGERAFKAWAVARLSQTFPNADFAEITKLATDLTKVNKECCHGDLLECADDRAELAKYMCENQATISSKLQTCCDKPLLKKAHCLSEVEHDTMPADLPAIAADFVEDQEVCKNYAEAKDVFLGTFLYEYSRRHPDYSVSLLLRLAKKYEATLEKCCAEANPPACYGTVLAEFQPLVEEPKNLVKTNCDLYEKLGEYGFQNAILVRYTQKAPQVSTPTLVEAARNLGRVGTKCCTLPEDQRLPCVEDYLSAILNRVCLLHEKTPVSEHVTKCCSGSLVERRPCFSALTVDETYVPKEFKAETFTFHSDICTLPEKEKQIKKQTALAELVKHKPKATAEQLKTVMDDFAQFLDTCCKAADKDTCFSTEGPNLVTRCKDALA
Described as above. The format is biochemical.
Excerpt: as §2, §1, §3

For assay [5], the target named is T6, methionine adenosyltransferase 1 (Mus musculus, UniProt Q91X83).
T6 construct: from tissue; host or cells: mouse liver extract
T6 sequence (Q91X83 whole entry): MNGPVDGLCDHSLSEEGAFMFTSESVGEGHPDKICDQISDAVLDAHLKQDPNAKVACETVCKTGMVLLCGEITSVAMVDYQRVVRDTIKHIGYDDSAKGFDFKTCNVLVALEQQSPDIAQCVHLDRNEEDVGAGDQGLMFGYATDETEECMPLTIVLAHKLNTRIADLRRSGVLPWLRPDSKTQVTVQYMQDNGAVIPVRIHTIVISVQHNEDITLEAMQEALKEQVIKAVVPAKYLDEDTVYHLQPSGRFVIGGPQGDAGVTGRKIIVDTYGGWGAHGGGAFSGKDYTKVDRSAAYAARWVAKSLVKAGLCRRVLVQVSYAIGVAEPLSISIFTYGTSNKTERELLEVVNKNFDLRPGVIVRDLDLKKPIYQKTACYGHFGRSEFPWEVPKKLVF
Described as above. The format is biochemical.
Excerpt: as §2, §1, §3

For assay [6], the target named is T7, glycine N-methyltransferase (Mus musculus, UniProt Q9QXF8).
T7 construct: from tissue; host or cells: mouse liver extract
T7 sequence (Q9QXF8 1-293): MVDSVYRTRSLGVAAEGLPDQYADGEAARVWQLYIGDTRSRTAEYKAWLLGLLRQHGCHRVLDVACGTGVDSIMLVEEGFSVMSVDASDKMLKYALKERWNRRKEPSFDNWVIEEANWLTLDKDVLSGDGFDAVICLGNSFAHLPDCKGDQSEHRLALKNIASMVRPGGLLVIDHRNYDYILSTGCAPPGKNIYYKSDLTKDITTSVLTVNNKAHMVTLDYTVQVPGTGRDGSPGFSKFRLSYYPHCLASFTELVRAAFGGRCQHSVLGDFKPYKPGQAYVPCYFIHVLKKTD
Described as above. It counts as biochemical.
Excerpt: as §2, §1, §3

Where [7] appears, read: chemically eluted, digested in solution.

Take `C[C@H](NC(=O)c1ccc(N=Nc2cc(CCNC(=O)CCCC[C@@H]3SC[C@@H]4NC(=O)N[C@@H]43)ccc2O)cc1)C(=O)N[C@@H](C)C(=O)NC(Cc1ccccc1)P(=O)(Oc1ccccc1)Oc1ccccc1` (some centres unmarked) [MTS-I-49]: the “decrease of the level of background peptides” value in assay [1] is reported as “over 90%”. For the same compound, the “Chemical Cleavage, number of identified peptides” value in assay [2] (setting [7]) turned out to be 0; in assay [3] (setting [7]) it was 2; in assay [4] (setting [7]) it was 0; on alcohol dehydrogenase 1 (setting [7]) it was 0; on albumin 1 (setting [7]) it was 0; in assay [5] (setting [7]), 0. In addition, in assay [6] (setting [7]), the “Chemical Cleavage, number of identified peptides” value worked out at 0. Moreover, the “On Bead Digestion, amino acid sequence coverage” value stood at 10% in assay [2] (on bead digestion); 26% in assay [3] (on bead digestion); 19% in assay [4] (on bead digestion); 20% at alcohol dehydrogenase 1 (on bead digestion); 6% at albumin 1 (on bead digestion); 9% in assay [5] (on bead digestion). Further, in assay [6] (on bead digestion), the “On Bead Digestion, amino acid sequence coverage” value is reported as 10%. For the same compound, the “On Bead Digestion, number of identified peptides” value in assay [2] (on bead digestion) amounted to 2; in assay [3] (on bead digestion), 5; in assay [4] (on bead digestion), 4; at alcohol dehydrogenase 1 (on bead digestion), 3; on albumin 1 (on bead digestion), 2; in assay [5] (on bead digestion), 2. The “On Bead Digestion, number of identified peptides” value in assay [6] (on bead digestion) was 2. Further, in assay [3] (setting [7]), the “Chemical Cleavage, amino acid sequence coverage” value came to 15%.
